Data taken from patent US20080261898A1, “COMPOSITION AND METHOD FOR CANCER TREATMENT AND PREVENTION” (priority 2007, published 2008).

Experiments:
[1] = test system: LNCaP cells; assay: BrdU based cell proliferation assay, LNCaP cells; parameters: species or system human
Protocol: (§1) AC620 was incubated with hormone-refractory prostate cancer cell line DU-145 cells and hormone-responsive prostate cancer cell line LNCaP cells at various concentrations (0, 0.1, 0.5, 1, 5 μM) for 72 hr. LNCaP cells were maintained in RPMI 1640 medium (PAA Laboratories, Pashing, Austria) supplemented with 10% fetal calf serum (FCS) (Sigma, St. Louis, Mo.). The effect of AC620 on proliferation of DU-145 cells and LNCaP cells was determined by using a non-radioactive BrdU based cell proliferation assay kit (Roche, Switzerland) according to manufacturer's protocol. BrdU incorporation into the cellular DNA was determined by measuring the absorbance at 450 nm and 690 nm on an ELISA plate reader.
as §1, with “0 (Control) and” for “various concentrations (0, 0.1, 0.5, 1,”, “μM” for “μM)”, “for 24, 48 and” for “for”, “hr.” for “hr. LNCaP cells were maintained in RPMI 1640 medium (PAA Laboratories, Pashing, Austria) supplemented with 10% fetal calf serum (FCS) (Sigma, St. Louis, Mo.).”

[2] = test system: VEGF; assay: VEGF expression in xenograft tumor samples, immunohistochemistry; type: in vivo, mouse; details: 1 mg/kg s.c. twice a week, 30 days
Protocol: (§2) 8-12 week old athymic nude mice (Jackson Laboratories, Bar Harbor, Me., US) were randomly assigned to Control (n=10) and Treatment (n=10) groups. Tumor xenografts were generated by injecting DU-145 cells (4×10^6) subcutaneously into the mice (Day 1). 1 mg/kg body weight of AC620 or PBS (Control) was administrated to the mice by subcutaneous injection starting at the time of tumor implantation (Day 1) and the mice were treated twice a week. Tumors were measured periodically. At Day 30, the mice were sacrificed. Half of each tumor was processed for immunohistochemical analysis and the other half was frozen for subsequent protein and RNA analysis.
(§3) Xenograft mouse model was generated and AC620 or PBS (Control) was administrated to the transplanted mice for 30 days as described above. After the mice were sacrificed, immunohistochemical analysis of the tumor samples was performed using VEGF and VEGF R2 antibodies with a semi-automatic system Ventana ES (Ventana Inc, Tucson, Ariz.). The specimens were viewed with an Olympus BX51 microscope. Expression of VEGF in tumor samples at RNA level was measured by RT-PCR.

[3] = test system: DU-145 cells; assay: Cell cycle profile by flow cytometry, DU-145 cells; type: cell-based, human; details: 72 hr
Protocol: AC620 was incubated with DU-145 cells at various concentrations ([…]) for 72 hr. The cells were then collected and their cell cycle profiles were measured by flow cytometry analysis.

[4] = test system: HT-29 cells; assay: BrdU based cell proliferation assay, HT-29 cells; details: 72 hr
Protocol: as §1
AC620 was incubated with metastatic colorectal cancer cell line HT-29 cells at various concentrations (0, 0.1, 0.5, 1, 4 μM) for 72 hr. The effect of AC620 on proliferation of HT-29 cells was determined by using a non-radioactive, BrdU based cell proliferation assay as described above.

[5] = test system: LNCaP cells; assay: Apoptosis, Annexin V flow cytometry, LNCaP cells; type: cell-based, human; details: 72 hr
Protocol: (§4) AC620 was incubated with DU-145 cells and LNCaP cells at various concentrations (0, 0.1, 0.5, 1, 5 μM) for 72 hr. The effect of AC620 on apoptosis of DU-145 cells and LNCaP cells was assessed. The cells were washed in 1×PBS and resuspended in binding buffer (0.01M Hepes pH 7.4, 0.14M NaCl, 2.5 mM CaCl2), stained with Annexin V conjugated with APC (Pharmingen) and then subjected to flow cytometry analysis using FACS Caliber (BD Biosciences, San Jose, Calif.).

[6] = test system: VEGF RNA; assay: VEGF RNA expression in xenograft tumor samples, RT-PCR; type: in vivo, mouse; details: 30 days treatment
Protocol: as §2, §3

[7] = test system: VEGF Receptor I (VEGF R1); assay: VEGF R1 expression in DU-145 cells, immunoblotting; type: cell-based, human; details: 0.1, 0.5, 1 μM, 72 hr
Protocol: DU-145 cells were treated with AC620 at various concentrations (0, 0.1, 0.5, 1 μM) for 72 hr. After 72 hr treatment, cell lysates were collected and immunoblotting was performed. The membranes were probed with primary antibodies against VEGF Receptor I (VEGF R1) and VEGF Receptor II (VEGF R2) and actin (Santa Cruz Biotechnology, Santa Cruz, Calif.) followed by horseradish peroxidase (HRP)-conjugated secondary antibodies and visualized using the Enhanced Chemi-Luminescence detection system (ECL) and ECL films.

[8] = test system: LNCaP cells; assay: Viable cells, Annexin-V staining and flow cytometry, LNCaP cells; type: cell-based, human; details: 72 hr
Protocol: AC620 was incubated with DU-145 cells, LNCaP cells and primary human prostate endothelial cells at high concentrations (0, 5, 100, 500, 1000 μM) for 72 hr. The number of viable cells was measured by Annexin-V staining followed by flow cytometry analysis.

[9] = test system: CDK1; assay: CDK1 expression in xenograft tumor samples, immunoblotting; type: in vivo, mouse
Protocol: as §2
Xenograft mouse model was generated and AC620 or PBS (Control) was administrated to the transplanted mice for 30 days as described above. After the mice were sacrificed, immunoblotting analysis of the tumor samples was performed using CDK1 and CDK2 antibodies as described above.

[10] = test system: DU-145 cells; assay: Apoptosis, Annexin V flow cytometry, DU-145 cells; type: cell-based, human; details: 72 hr
Protocol: as §4

[11] = test system: VEGF; assay: VEGF expression in DU-145 cells, immunoblotting; type: cell-based, human
Protocol: AC620 was dissolved in ethanol and then added to cultured DU-145 cells, a hormone-refractory, metastatic prostate cancer cell line. The concentrations tested were 0, 0.1, 0.5, 1 and 4 μM, and the cells were grown for 72 hr. Cells treated with ethanol for the same time period were used as Control. DU-145 cells were maintained in RPMI 1640 medium (PAA Laboratories, Pashing, Austria) supplemented with 10% fetal calf serum (FCS) (Sigma, St. Louis, Mo.). After 72 hr treatment, cell Tysates were collected and immunoblotting was performed. The membranes were probed with primary antibodies against VEGF and actin (Santa Cruz Biotechnology, Santa Cruz, Calif.) followed by horseradish peroxidase (HRP)-conjugated secondary antibodies (Amersham Life Science, Alesbury, U.K.) and visualized using the Enhanced Chemi-Luminescence detection system (ECL) and ECL films (Amersham Pharmacia Biotech).

Structure (SMILES): CC1OC(OCC2OC(Oc3c(-c4ccc(O)c(O)c4)oc4cc(O)c(O)cc4c3=O)C(O)C(O)C2O)C(O)C(O)C1O (stereo not shown) [AC620]
- decrease in cell proliferation of LNCaP cells ([1]; 5 μM, after 24 hr): 16%
- decrease in cell proliferation of LNCaP cells ([1]; 5 μM, after 48 hr): 20%
- decrease in cell proliferation of LNCaP cells ([1]; 5 μM, after 72 hr (time study)): 65%
- decrease in cell proliferation of LNCaP cells ([1]; 0.1 μm, 72 hr): 23%
- decrease in cell proliferation of LNCaP cells ([1]; 0.5 μm, 72 hr): 20%
- decrease in cell proliferation of LNCaP cells ([1]; 1 μm, 72 hr): 42%
- decrease in cell proliferation of LNCaP cells ([1]; 5 μm, 72 hr (dose study)): 65%
- expression of VEGF in tumors [2]: completely abolished
- G1 phase cell cycle arrest ([3]; 0.1 μm): 0%
- G1 phase cell cycle arrest ([3]; 0.5 μm): 4%
- G1 phase cell cycle arrest ([3]; 1 μm): 18%
- G1 phase cell cycle arrest ([3]; 5 μm): 32%
- cell proliferation decreased, HT-29 cells ([4]; 0.1 μm): 0%
- cell proliferation decreased, HT-29 cells ([4]; 0.5 μm): 5%
- cell proliferation decreased, HT-29 cells ([4]; 1 μm): 46%
- cell proliferation decreased, HT-29 cells ([4]; 4 μm): 62%
- apoptosis increased, LNCaP cells ([5]; 0.1 μm): 46%
- apoptosis increased, LNCaP cells ([5]; 0.5 μm): 81%
- apoptosis increased, LNCaP cells ([5]; 1 μm): 154%
- apoptosis increased, LNCaP cells ([5]; 5 μm): 177%
- estimated decrease of VEGF RNA expression level in tumor samples [6]: ~90%
- change in VEGF R1 expression [7]: no change
- viable LNCaP cells decreased ([8]; 5 μm): 42%
- viable LNCaP cells decreased ([8]; 100 μm): 67%
- viable LNCaP cells decreased ([8]; 500 μm): 92%
- viable LNCaP cells decreased ([8]; 1000 μm): 96%
- reduction of CDK1 expression in tumor samples ([9]; Treatment 1): approximately 80%
- reduction of CDK1 expression in tumor samples ([9]; Treatment 2): > 95%
- reduction of CDK1 expression in tumor samples ([9]; Treatment 3): ~90%
- reduction of CDK1 expression in tumor samples ([9]; Treatment 4): approximately 80%
- apoptosis increased, DU-145 cells ([10]; 0.1 μm): 46%
- apoptosis increased, DU-145 cells ([10]; 0.5 μm): 115%
- apoptosis increased, DU-145 cells ([10]; 1 μm): 285%
- apoptosis increased, DU-145 cells ([10]; 5 μm): 389%
- reduced VEGF expression ([11]; 0.1 μm AC620, 72 hr): approximately 40%
- reduced VEGF expression ([11]; 0.5 μm AC620, 72 hr): approximately 60%
- reduced VEGF expression ([11]; 1 μm AC620, 72 hr): approximately 80%
